44 compounds from US20200157088A1, “BENZENE FUSED HETEROCYCLIC COMPOUND AND USE THEREOF” (TAIWANJ PHARMACEUTICALS CO., LTD., priority 2017, published 2020) can be followed below.

Each structure is given as a SMILES string. Some results are limits rather than exact numbers.

For the first assay, the target named is T1, autotaxin (Homo sapiens, UniProt Q13822).
T1 construct: purchased Cayman 10803
Description: Autotaxin inhibitor screening assay (choline release from LPC).
Details: not given
The class given is biochemical. As for the experimental part: Autotaxin activity was measured by choline release from LPC in presence or absence of compound.
Twenty (20) ng autotaxin (10803, Cayman, MI, USA) was incubated with 100 μM 14:0 LPC (855575P, Avanti, AL, USA) in a final volume of 100 μL buffer containing 50 mM Tris pH 8.0, 0.01% Triton X-100, 50 mM CaCl2, 1 unit/ml choline oxidase, 2 unit/ml HRP, 2 mM homovanilic acid (HVA). The relative amount of released choline was measured by HVA fluorescence in a 96-well plate. Fluorescent intensity was determined at λex/λem=320/450 nm every 60 seconds for 90 minutes with a SpectraMax i3 (Molecular Devices, CA, USA). Data analysis was performed using GraphPad Prism (GraphPad, La Jolla Calif., USA).
Inhibition %=[1−SlopeTA−SlopeBlank)/(Slopevehicle−SlopeBlank)]×100%
With `CN(C(=O)OCc1cc(Cl)cc(Cl)c1)C1CCc2ccc(C3=CCN(CC(=O)N4CCC(=O)CC4)CC3)cc21` (centres unmarked) [Compound 11], the inhibition (in general, the percentage by which the read-out fell short of the control) at 1 µM lay within 50 to 80%. On the same count and under the same terms, as for `CN(c1nc(-c2ccccc2)cs1)C1CCc2ccc(N3CCN(CC(=O)N4CC(O)C4)CC3)cc21` (centres unmarked) [Compound 44], the figure is below 50%. Still for that read-out and setting: as for `CN(c1nc(-c2ccc(Cl)cc2)c(C#N)s1)C1CCCc2ccc(N3CCN(CC(=O)N4CC(O)C4)CC3)cc21` (centres unmarked) [Compound 51], the figure is below 50%.

The assay is the same for the next values; noted with them: inhibition of autotaxin enzyme activity at 1 μM compound; 100 μM 14:0 LPC; read-out: Inhibition.
Take `CN(C(=O)OCc1cc(Cl)cc(Cl)c1)C1CCc2ccc(C3=CCN(CC(=O)N4CC(O)C4)CC3)cc21` (centres unmarked) [Compound 8, 3,5-dichlorobenzyl(6-(1-(2-(3-hydroxyazetidin-1-yl)-2-oxoethyl)-1,2,3,6-tetrahydropyridin-4-yl)-2,3-dihydro-1H-inden-1-yl)(methyl)carbamate]: the inhibition at 1 µM fell in the range of 50 to 80%.

Regarding `CN(C(=O)OCc1cc(Cl)cc(Cl)c1)C1CCc2ccc(C3=CCN(C(=O)CN4C(=O)CSC4=S)CC3)cc21` (centres unmarked) [Compound 9, 3,5-dichlorobenzyl methyl(6-(1-(2-(4-oxo-2-thioxothiazolidin-3-yl)acetyl)-1,2,3,6-tetrahydropyridin-4-yl)-2,3-dihydro-1H-inden-1-yl)carbamate], the inhibition at 1 µM was above 80%. On the same count and under the same terms, as for `CN(C(=O)OCc1cc(Cl)cc(Cl)c1)C1CCc2ccc(C3=CCN(CC(=O)N4CCOCC4)CC3)cc21` (centres unmarked) [Compound 10], the figure is 50 to 80%; as for `CN(C(=O)OCc1cc(Cl)cc(Cl)c1)C1CCc2ccc(C3=CCN(CC(=O)N4CC[C@@H](O)C4)CC3)cc21` (some centres unmarked) [Compound 12], 50 to 80%. The same measure, in the same setting: with `CN(C(=O)OCc1cc(Cl)cc(Cl)c1)C1CCc2ccc(C3=CCN(CC(=O)N4CCCC4)CC3)cc21` (centres unmarked) [Compound 13] the figure was below 50%; with `CCN(CC)C(=O)CN1CC=C(c2ccc3c(c2)C(N(C)C(=O)OCc2cc(Cl)cc(Cl)c2)CC3)CC1` (centres unmarked) [Compound 14], below 50%; with `CCOC(=O)N1CCN(C(=O)CN2CC=C(c3ccc4c(c3)C(N(C)C(=O)OCc3cc(Cl)cc(Cl)c3)CC4)CC2)CC1` (centres unmarked) [Compound 15], below 50%. The same measure, in the same setting: with `CN(C(=O)OCc1cc(Cl)cc(Cl)c1)C1CCc2ccc(C3=CCN(CC(=O)N4CCS(=O)(=O)CC4)CC3)cc21` (centres unmarked) [Compound 16] the figure was 50 to 80%.

`CN(C(=O)OCc1cc(Cl)cc(Cl)c1)C1CCc2ccc(C3=CCN(CC(=O)N4CCN(S(C)(=O)=O)CC4)CC3)cc21` (centres unmarked) [Compound 17]: the inhibition at 1 µM was 50 to 80%.

As to `CN(C(=O)OCc1cc(Cl)cc(Cl)c1)C1CCc2ccc(C3=CCN(C(=O)CN4CCOCC4)CC3)cc21` (centres unmarked) [Compound 18], the inhibition at 1 µM was above 80%.

For `CN(C(=O)OCc1cc(Cl)cc(Cl)c1)C1CCc2ccc(C3=CCN(CC(=O)N4CCCC(O)C4)CC3)cc21` (centres unmarked) [Compound 19], the inhibition at 1 µM is below 50%.

As for `CN(C(=O)OCc1cc(Cl)cc(Cl)c1)C1CCc2ccc(C3=CCN(CC(=O)NS(C)(=O)=O)CC3)cc21` (centres unmarked) [Compound 20], the inhibition at 1 µM is 50 to 80%. `CN(C(=O)OCc1cc(Cl)cc(Cl)c1)C1CCc2ccc(C3=CCN(CC(=O)N(C)S(C)(=O)=O)CC3)cc21` (centres unmarked) [Compound 21]: the inhibition at 1 µM was in the range of 50 to 80%.

Turning to `CN(C(=O)OCc1cc(Cl)cc(Cl)c1)C1CCc2ccc(C3=CCN(C(=O)CS(C)(=O)=O)CC3)cc21` (centres unmarked) [Compound 22], the inhibition at 1 µM was above 80%. Turning to `CN(C(=O)OCc1cc(Cl)cc(Cl)c1)C1CCc2ccc(C3=CCN(C(=O)C(=O)N4CCOCC4)CC3)cc21` (centres unmarked) [Compound 23], the inhibition at 1 µM was in the range of 50 to 80%.

`CN(C(=O)OCc1cc(Cl)cc(Cl)c1)C1CCc2ccc(C3=CCN(C(=O)CN4CC(O)C4)CC3)cc21` (centres unmarked) [Compound 24]: the inhibition at 1 µM is below 50%. On the same count and under the same terms, as for `CN(C(=O)OCc1cc(Cl)cc(Cl)c1)C1CCc2ccc(C3=CCN(C(=O)CN4CCN(S(C)(=O)=O)CC4)CC3)cc21` (centres unmarked) [Compound 25], the figure is above 80%; as for `CN(C(=O)OCc1cc(Cl)cc(Cl)c1)C1CCc2ccc(C3=CCN(C(=O)CN4C(=O)CCC4=O)CC3)cc21` (centres unmarked) [Compound 26], below 50%. On the same count and under the same terms, with `CN(C(=O)OCc1cc(Cl)cc(Cl)c1)C1CCc2ccc(C3=CCN(C(=O)CN4C(=O)C=CC4=O)CC3)cc21` (centres unmarked) [Compound 27] the figure was above 80%; with `CN(C(=O)OCc1cc(Cl)cc(Cl)c1)C1CCc2ccc(C3=CCN(C(=O)CCN4C(=O)CSC4=S)CC3)cc21` (centres unmarked) [Compound 28], 50 to 80%; with `CN(C(=O)OCc1cc(Cl)cc(Cl)c1)C1CCc2ccc(C3=CCN(C(=O)CNS(C)(=O)=O)CC3)cc21` (centres unmarked) [Compound 29], above 80%. The same measure, in the same setting: with `CN(C(=O)OCc1cc(Cl)cc(Cl)c1)C1CCc2ccc(C3=CCN(C(=O)CN(C)S(C)(=O)=O)CC3)cc21` (centres unmarked) [Compound 30] the figure was above 80%. For the compound `CN(C(=O)OCc1cc(Cl)cc(Cl)c1)C1CCc2ccc(N3CCN(CC(=O)N4CC(O)C4)CC3)cc21` (centres unmarked) [Compound 33, 3,5-dichlorobenzyl (6-(4-(2-(3-hydroxyazetidin-1-yl)-2-oxoethyl)piperazin-1-yl)-2,3-dihydro-1H-inden-1-yl)(methyl)carbamate], the inhibition at 1 µM lay within 50 to 80%. Turning to `CN(C(=O)OCc1cc(Cl)cc(Cl)c1)C1CCc2ccc(N3CCN(C(=O)CN4CCOCC4)CC3)cc21` (centres unmarked) [Compound 34, 3,5-dichlorobenzyl methyl(6-(4-(2-morpholinoacetyl)piperazin-1-yl)-2,3-dihydro-1H-inden-1-yl)carbamate], the inhibition at 1 µM is 50 to 80%. Same read-out and setting: as for `CN(C(=O)OCc1cc(Cl)cc(Cl)c1)C1CCc2ccc(N3CCN(C(=O)CN4C(=O)CSC4=S)CC3)cc21` (centres unmarked) [Compound 36], the figure is above 80%; as for `CN(C(=O)OCc1cc(Cl)cc(Cl)c1)C1CCc2ccc(N3CCN(C(=O)CS(C)(=O)=O)CC3)cc21` (centres unmarked) [Compound 37], 50 to 80%; as for `CN(C(=O)OCc1cc(Cl)cc(Cl)c1)C1CCCc2ccc(N3CCN(CC(=O)N4CC(O)C4)CC3)cc21` (centres unmarked) [Compound 38], below 50%.

`CN(c1nc(-c2ccc(F)cc2)cs1)C1CCc2ccc(N3CCN(CC(=O)N4CC(O)C4)CC3)cc21` (centres unmarked) [Compound 43, 2-(4-(3-((4-(4-fluorophenyl)thiazol-2-yl)(methyl)amino)-2,3-dihydro-1H-inden-5-yl)piperazin-1-yl)-1-(3-hydroxyazetidin-1-yl)ethan-1-one]: the inhibition at 1 µM is below 50%. `CN(c1nc(-c2ccc(F)cc2)c(C#N)s1)C1CCc2ccc(N3CCN(CC(=O)N4CC(O)C4)CC3)cc21` (centres unmarked) [Compound 50, 4-(4-fluorophenyl)-2-((6-(4-(2-(3-hydroxyazetidin-1-yl)-2-oxoethyl)piperazin-1-yl)-2,3-dihydro-1H-inden-1-yl)(methyl)amino)thiazole-5-carbonitrile]: the inhibition at 1 µM is below 50%. Same read-out and setting: as for `CN(c1nc(-c2ccc(Cl)cc2)c(C#N)s1)C1CCc2ccc(N3CCN(CC(=O)N4CC(O)C4)CC3)cc21` (centres unmarked) [Compound 52], the figure is below 50%; as for `CN(c1nc(-c2ccc(F)cc2)c(C#N)s1)C1CCCc2ccc(N3CCN(CC(=O)N4CC(O)C4)CC3)cc21` (centres unmarked) [Compound 53], below 50%. Turning to `CN(c1nc(-c2ccc(Cl)cc2)c(C#N)s1)C1CCc2ccc(N3CCN(C(=O)CN4C(=O)CSC4=S)CC3)cc21` (centres unmarked) [Compound 54], the inhibition at 1 µM is below 50%.

In the case of `CN(c1nc(-c2ccc(Cl)cc2)c(C#N)s1)C1CCc2ccc(C3=CCN(CC(=O)N4CC(O)C4)CC3)cc21` (centres unmarked) [Compound 58, 4-(4-chlorophenyl)-2-((6-(1-(2-(3-hydroxyazetidin-1-yl)-2-oxoethyl)-1,2,3,6-tetrahydropyridin-4-yl)-2,3-dihydro-1H-inden-1-yl)(methyl)amino)thiazole-5-carbonitrile], the inhibition at 1 µM was below 50%. For `CN(c1nc(-c2cc(Cl)cc(Cl)c2)c(C#N)s1)C1CCc2ccc(C3=CCN(CC(=O)N4CC(O)C4)CC3)cc21` (centres unmarked) [Compound 59], the inhibition at 1 µM was below 50%. The same measure, in the same setting: with `CCC1Cc2ccc(C3=CCN(CC(=O)N4CC(O)C4)CC3)cc2C1N(C)c1nc(-c2ccc(Cl)cc2)c(C#N)s1` (centres unmarked) [Compound 60] the figure was below 50%. On the same count and under the same terms, as for `CCC1Cc2ccc(C3=CCN(CC(=O)N4CC(O)C4)CC3)cc2C1N(C)c1nc(-c2cc(Cl)cc(Cl)c2)c(C#N)s1` (centres unmarked) [Compound 61], the figure is below 50%; as for `CN(C(=O)OCc1cc(Cl)cc(Cl)c1)c1coc2ccc(N3CCN(C(=O)CN4C(=O)CSC4=S)CC3)cc12` [Compound 66, 3,5-dichlorobenzyl methyl(5-(4-(2-(4-oxo-2-thioxothiazolidin-3-yl)acetyl)piperazin-1-yl)benzofuran-3-yl)carbamate], above 80%. Same read-out and setting: as for `CN(C(=O)OCc1cc(Cl)cc(Cl)c1)c1coc2ccc(C3=CCN(C(=O)CN4C(=O)CSC4=S)CC3)cc12` [Compound 69, 3,5-dichlorobenzyl methyl(5-(1-(2-(4-oxo-2-thioxothiazolidin-3-yl)acetyl)-1,2,3,6-tetrahydropyridin-4-yl)benzofuran-3-yl)carbamate], the figure is above 80%. Turning to `CN(CCOc1ccc(F)cc1F)C1CCc2ccc(N3CCN(CC(=O)N4CC(O)C4)CC3)cc21` (centres unmarked) [Compound 73], the inhibition at 1 µM was below 50%. Still for that read-out and setting: with `CN(CCOc1ccc(F)cc1F)C1CCCc2ccc(N3CCN(CC(=O)N4CC(O)C4)CC3)cc21` (centres unmarked) [Compound 74] the figure was below 50%. Same read-out and setting: with `N#Cc1cn(Cc2coc3ccc(C4=CCN(CC(=O)N5CC(O)C5)CC4)cc23)nc1-c1ccc(Cl)cc1` [Compound 82, 3-(4-chlorophenyl)-1-((5-(1-(2-(3-hydroxyazetidin-1-yl)-2-oxoethyl)-1,2,3,6-tetrahydropyridin-4-yl)benzofuran-3-yl)methyl)-1H-pyrazole-4-carbonitrile] the figure was below 50%.
